According to patent US11492359B2, “Near-infrared nerve-sparing fluorophores” (OREGON HEALTH & SCIENCE UNIVERSITY, priority 2018, dated 2022):

Tests used:
[1] = tested on: mouse brachial plexus nerves; assay: Nerve imaging at depth under muscle tissue; assay type: in vivo; details: for width of smallest nerve branches distinguished under muscle tissue: direct administration, under 1 mm of muscle tissue; for thickness of muscle tissue under which nerve tissue could be identified: following both systemic and direct administration, 700 nm channel filters
Method: Nerve imaging at depth studies using a model Oxazine derivative. Oxazine 4 and LGW01-08 were used to stain mouse brachial plexus nerves using both direct and systemic administration methods using the same dose and administration methods previously described. The ability to image the brachial plexus nerve at depth was assessed under varying thicknesses of mouse muscle tissue. Muscle tissue was resected from the peritoneal muscle layer and measured for thickness. One and two layers of resected peritoneal muscle tissue was placed over the stained nerves, providing one and two mm thick homogenous tissue through which the stained nerve tissue was imaged. The same muscle tissue was used to cover the stained nerves from both fluorophores with care taken to orient the muscle in the same way to ensure equivalent comparison. The imaging system configuration was changed to reflect the 700 nm channel in clinically relevant FGS systems (Tummers et al., Eur J Surg Oncol 40, 850-858 (2014); Troyan et al., Ann Surg Oncol 16, 2943-2952 (2009); Ashitate et al., The Journal of surgical research 176, 7-13 (2012); Verbeek et al., The Journal of urology 190, 574-579 (2013); Hillary et al., Langenbecks Arch Surg 403, 111-118 (2018); and Mery et al., Oncotarget 8, 109559-109574 (2017). For fluorescence excitation, the PhotoFluor II was filtered with a 650±22.5 nm bandpass excitation filter. The resulting fluorescence was collected with a 720±30 nm bandpass emission filter for image collection. Camera exposure times ranged from 0.025-4 s for fluorescence image collection.
Image analysis of intraoperative nerve contrast. Custom written MatLab code was used to analyze the tissue specific fluorescence where regions of interest (ROIs) were selected on the nerve, muscle and adipose tissue using the white light images, but blinded to the fluorescence images. These ROIs were then analyzed on the co-registered, matched fluorescence images permitting assessment of the mean tissue intensities as well as the nerve to muscle (N/M) and nerve to adipose (N/A) ratios. Fluorescence intensity measurements were divided by the exposure time to obtain normalized intensity per second measurements. Mean nerve to background tissue ratios (N/M and N/A) were calculated for each Oxazine derivative. For nerve imaging at depth image analysis, fluorescent line profiles and 3-D intensity topographical plots were generated in ImageJ using the plot profile and surface plot functions, respectively. The line profiles were background and exposure time corrected by dividing by the exposure time of each image and subtracting the average intensity of background pixels from the entire line profile. […]

[2] = tested on: swine peripheral nerves; assay: Swine nerve imaging on da Vinci Si surgical system; assay type: in vivo
Description: A custom-built laparoscopic imaging system also capable of real-time color and fluorescence imaging was used to acquire in vivo swine images and videos. The imaging system was integrated into the da Vinci Si surgical system (Intuitive Surgical, Sunnyvale, Calif.) and consisted of a Necsel Neon 5 W 640 nm laser (Necsel, Milpitas, Calif.) coupled to the da Vinci Si endoscope with a 642 nm StopLine single-notch blocking filter (Semrock, Rochester, N.Y.). The single-notch blocking filter was placed in the Si camera sterile adaptor between the rod lens endoscope and the Si camera head. Fluorescent signal acquisition occurred in the Si white light mode with the blocking filter removing the excitation light and the fluorescent signal detected primarily on the red, green, blue (RGB) red-Bayer elements of a modified Si endoscope camera head. Laser power at the endoscope tip measured 800 mW with the optical power loses occurring primarily at the laser fiber/light guide and the Si camera head/rod lens interfaces. Fluorescence and color videos were captured using the Si Vision side cart at an exposure time of 2 ms. Videos were recorded on a Panasonic HD-SDI recorder connected to the TilePro video out connections on the da Vinci Si Vision side cart. Video clips were edited in iMovie to crop their length and include text overlays. Screen captures of the in vivo video clips were collected and are presented as figures. Da Vinci Si imaging display algorithms apply non-linear gamma and color corrections to the collected video, and thus, while image quantification is possible to report what would be visible to surgeons intraoperatively, these values are only semi-quantitative and could vary from what is observed in a more controlled system.
Swine nerve imaging studies of Oxazine derivatives. LGW01-08 and LGW05-75 were administered via IV injection at a body surface area scaled dose from mice for swine nerve imaging studies (0.34 mg/kg) (Nair & Jacob, J Basic Clin Pharm 7, 27-31 (2016) and Sharma & McNeill, Br J Pharmacol 157, 907-921 (2009)). Nerves running along the body wall in the peritoneal cavity buried beneath 1-3 mm of fascia and adipose tissue were imaged using the previously described fluorescence enabled laparoscopic imaging system docked to the da Vinci Si Surgical System. Nerve contrast was monitored immediately following injection and up to 6 hours after systemic administration. Dissection and resection of the identified nerve structures was performed using the da Vinci system, where the resected tissues were fixed in formalin. The fixed tissues were sent to the OHSU Histopathology Shared Resource for paraffin embedding, sectioning and subsequent gold standard H&E staining.
Image analysis of intraoperative nerve contrast. Custom written MatLab code was used to analyze the tissue specific fluorescence where regions of interest (ROIs) were selected on the nerve, muscle and adipose tissue using the white light images, but blinded to the fluorescence images. These ROIs were then analyzed on the co-registered, matched fluorescence images permitting assessment of the mean tissue intensities as well as the nerve to muscle (N/M) and nerve to adipose (N/A) ratios. Fluorescence intensity measurements were divided by the exposure time to obtain normalized intensity per second measurements. Mean nerve to background tissue ratios (N/M and N/A) were calculated for each Oxazine derivative. For nerve imaging at depth image analysis, fluorescent line profiles and 3-D intensity topographical plots were generated in ImageJ using the plot profile and surface plot functions, respectively. The line profiles were background and exposure time corrected by dividing by the exposure time of each image and subtracting the average intensity of background pixels from the entire line profile. […] In addition, non-uniform tissue surfaces, variable endoscope-tissue positioning, and vignetting add further complications to resolving tissue-level SBRs.

[3] = tested on: murine brachial plexus and sciatic nerves; assay: Nerve-specificity screening using systemic administration; assay type: in vivo; details: for nerve specificity / nerve contrast (N/M vs control group) following systemic administration: IV, 200 nmol, 4 hours prior to imaging
[4] = UV-Vis absorption and fluorescence spectroscopy of the Oxazine library; assay type: physicochemical; details: for Extinction coefficient: Beer's Law plots; for Quantum yield: relative, references Oxazine 1, Oxazine 170, Rhodamine 101
Summary of the method: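 Absorbance measured at room temperature in 1-cm quartz cuvette, reference corrected; extinction coefficient from Beer's Law plots of absorbance vs concentration. Fluorescence spectra corrected for PMT response; relative quantum yields averaged over multiple measurements against Oxazine 1, Oxazine 170 and Rhodamine 101 references.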

[5] = tested on: murine brachial plexus and sciatic nerves; assay: Nerve-specificity screening using direct/topical administration; assay type: in vivo, mouse; details: for nerve specificity (N/M contrast vs control group) via direct administration: 125 μM, imaged 30 minutes after staining
Method: All reagents were purchased from Sigma Aldrich, Fisher Scientific, TCI, or Ark Pharm. Unless otherwise indicated, all commercially available starting materials were used directly without further purification. Analytical thin layer chromatography (TLC) was performed on Millipore ready-to-use plates with silica gel 60 (F254, 32-63 μm). Flash chromatography was performed on Sorbent Technologies silica gel for column chromatography or on a Biotage Isolera Flash System using SNAP Ultra cartridges. High-resolution mass spectra (HRMS) were measured on a ThermoElectron LTQ-Orbitrap high resolution mass spectrometer with a dedicated Accela HPLC system, or an Agilent 6244 time-of-flight LCMS with diode array detector VL+. LCMS and Purity Characterization Mass-to-charge ratio and purity of the Oxazine compounds were characterized on an Agilent 6244 time-of-flight tandem liquid chromatography mass spectroscopy (LCMS) with diode array detector VL+. Sample (10 μL) was injected into a C18 column (Poroshell 120, 4.6×50 mm, 2.7 micron), and eluted with a solvent system of A (H2O, 0.1% FA) and B (MeCN, 01.% FA) at 0.4 mL/min, from A/B=90/10 to 5/95 over 10 min, maintained at A/B=5/95 for additional 5 min. Ions were detected in positive ion mode by setting the capillary voltage at 4 kV and gas temperature at 350° C. Purity was calculated through area under the curve analysis of the absorbance at 254 nm. UV-Vis Absorption and Fluorescence Spectroscopy. UV-Vis spectra were collected with a Cary 50 UV-Vis spectrophotometer at room temperature, using a 1-cm quartz cuvette. Fluorescence spectra were collected on a Cary Eclipse fluorescence spectrophotometer (Agilent Technologies). All absorbance spectra were reference corrected. Extinction coefficient was calculated from Beer's Law plots of absorbance versus concentration. Fluorescence spectra were corrected for the wavelength dependent response of the R928 photomultiplier tube using a manufacturer generated correction file. Relative quantum yields are reported as the average of multiple measurements using multiple references, including Oxazine 1, Oxazine 170, and Rhodamine 101. Physicochemical Property Calculation. Physicochemical partition coefficients (Log D) values at pH 7.4, number of hydrogen bond donors and acceptors, polar surface area, and the number of rotatable bonds were calculated using Marvin and JChem calculator plugins (ChemAxon, Budapest, Hungary). Nerve-Specificity Screening using Direct/Topical Administration Each compound was screened for its tissue-specificity using a previously published direct/topical administration strategy in murine brachial plexus and sciatic nerves.^1 Each compound from the Oxazine library was formulated in the previously utilized co-solvent formulation (10% DMSO, 5% Kolliphor, 65% serum and 20% phosphate buffered saline) at 125 μM. 100 μL of the formulated Oxazine were incubated on the exposed brachial plexus or sciatic nerve for 5 minutes. The fluorophore containing solution was removed and the area was irrigated with saline 18 times to remove any unbound fluorophore. Co-registered fluorescence and color images were collected of each stained area 30 minutes after Oxazine direct/topical administration using a custom built macroscopic imaging system with 620/60 nm excitation and 700/75 nm bandpass emission filters. Custom written MatLab code was used to analyze the tissue specific fluorescence where regions of interest were selected on the nerve, muscle and adipose tissue using the white light images. These regions of interest were then analyzed on the co-registered matched fluorescence images permitting assessment of the nerve to muscle and nerve to adipose ratios in blinded manner. […]

[6] = tested on: nerve and muscle tissue; assay: Ex vivo tissue staining nerve-specificity screening
Description: Oxazine derivative library nerve-specificity screening. All 64 Oxazine derivatives were screened for nerve specificity using a previously described ex vivo tissue staining assay (Gibbs, S. L., et al., PloS one 8, e73493 (2013)). Ex vivo nerve and muscle tissue fluorescence intensities varied, with many compounds showing minimal nerve or muscle tissue fluorescence above control autofluorescence following Oxazine derivative staining. […] All Oxazine derivatives were further screened for nerve-specificity in vivo using both direct and systemic administration strategies. The direct administration strategy enabled quantification of nerve-specificity and contrast following fluorophore contact with the nerves and surrounding tissues without the requirement of BNB penetration, providing the most similar comparison to ex vivo nerve-specificity screening. The systemic administration screening studies required not only nerve specificity, but also adequate biodistribution and BNB penetration to generate SBR for visualization.

[7] = reported nerve-specific fluorophores; cited from earlier work

CCNc1cc2oc3cc(=[N+](CC)CC)ccc-3nc2cc1C [LGW01-08, N-ethyl-N-(7-(ethylamino)-8-methyl-3H-phenoxazin-3-ylidene)ethanaminium]
width of smallest nerve branches distinguished under muscle tissue [1]: ~200 μm
thickness of muscle tissue under which nerve tissue could be identified [1]: up to 2 mm
time post-injection at which signal approached background levels ([2]; swine, IV 0.34 mg/kg): ~4 h
nerve contrast against key surgical tissue classes (adipose, muscle, vasculature, peritoneal) ([2]; swine, laparoscopic): positive nerve contrast
SBR of buried nerve tissues ([2]; swine, underlying peritoneal tissue and several millimeters of mixed adipose and muscle tissues, semi-quantitative): ~1.5
faster time to positive N/A and N/M fluorescence compared to current visible-emissive agents ([2]; systemic administration): 2-6 fold
time post-injection to nerve signal / strong nerve contrast ([2]; systemic administration): 20 min
nerve specificity / nerve contrast (N/M vs control group) following systemic administration [3]: high nerve specificity
N/M and N/A ratios vs unstained control animals ([3]; systemic administration): significantly higher N/M and N/A ratios than unstained control animals
Max Abs [4]: 638 nm
Max Em [4]: 659 nm
Max Ex [4]: 640 nm
Extinction coefficient [4]: 78650 M⁻¹ cm⁻¹
Quantum yield [4]: 5.68%
nerve specificity (N/M contrast vs control group) via direct administration [5]: high nerve specificity
N/M and N/A ratios vs unstained control animals ([5]; direct administration): significantly higher N/M and N/A ratios than unstained control animals

CN(C)c1ccc2nc3ccc(=[N+](C)C)cc-3oc2c1 [LGW01-39, N-(7-(dimethylamino)-3H-phenoxazin-3-ylidene)-N-methylmethanaminium]
ex vivo nerve specificity (N/M SBR vs unstained control group) [6]: significantly higher N/M SBR compared to the unstained control group
Max Abs [4]: 648 nm
Max Em [4]: 667 nm
Max Ex [4]: 650 nm
Extinction coefficient [4]: 76144 M⁻¹ cm⁻¹
Quantum yield [4]: 9.56%

CC/N=c1/cc2oc3cc4c(cc3nc-2cc1C)C(C)=CC(C)(C)N4 [LGW01-44, (Z)—N-(2,2,4,8-tetramethyl-1,2-dihydro-9H-pyrido[3,2-b]phenoxazin-9-ylidene)ethanaminium]
ex vivo nerve specificity (N/M SBR vs unstained control group) [6]: significantly higher N/M SBR compared to the unstained control group
nerve specificity / nerve contrast (N/M vs control group) following systemic administration [3]: negative for nerve contrast
Max Abs [4]: 648 nm
Max Em [4]: 664 nm
Max Ex [4]: 650 nm
Extinction coefficient [4]: 40124 M⁻¹ cm⁻¹
Quantum yield [4]: 21.63%
nerve specificity (N/M contrast vs control group) via direct administration [5]: positive nerve specificity

CCN=c1cc2oc3cc(NCC)c(C)cc3nc-2cc1C.[O-][Cl+3]([O-])([O-])O [OX-4, reference compound]
width of smallest nerve branches distinguished under muscle tissue [1]: did not possess the ability to resolve smaller branches
thickness of muscle tissue under which nerve tissue could be identified [1]: 1 mm
emission wavelength maximum [7]: 635 nm
ex vivo nerve specificity (N/M SBR vs unstained control group) [6]: lacked nerve-specificity ex vivo
Max Abs [4]: 618 nm
Max Em [4]: 634 nm
Max Ex [4]: 620 nm
Extinction coefficient [4]: 77156 M⁻¹ cm⁻¹
Quantum yield [4]: 38.37%
